Assay results from the supplement of paper PMC8617591.

Legend:
[1] = test system: Mycobacterium tuberculosis Erdman (autoluminescent); assay: AUC25, normalised area under dose response up to IC25 (three-drug combination) (fraction (0-1)); higher = more potent at low dose
Procedure: (§1)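 DiaMOND equipotent three-drug combination dose responses (10 doses, 1.5- or 2-fold spacing, centred on IC90) against autoluminescent M. tuberculosis Erdman in 8 in vitro models. Read-out is OD600, or luminescence for the intracellular and dormancy models, normalised to untreated wells. Hill-fit Einf, AUC25 and GRinf are potency metrics; FIC50 and FIC90 are total Loewe fractional inhibitory concentrations as log2 (negative = synergy).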

[2] = test system: Mycobacterium tuberculosis Erdman (autoluminescent); assay: Einf, fitted maximum growth inhibition of three-drug combination (fraction); higher = stronger maximal inhibition
Procedure: as §1

[3] = test system: Mycobacterium tuberculosis Erdman (autoluminescent); assay: total FIC90 (Loewe) at 90% inhibition, three-drug combination (log2); higher = more antagonistic
Procedure: as §1

[4] = test system: Mycobacterium tuberculosis Erdman (autoluminescent); assay: GRinf, maximum normalised growth rate inhibition (three-drug combination) (unitless (-1 to 1)); higher = less effect (negative = killing)
Procedure: as §1

[5] = test system: Mycobacterium tuberculosis Erdman (autoluminescent); assay: total FIC50 (Loewe) at 50% inhibition, three-drug combination (log2); higher = more antagonistic
Procedure: as §1

CC(C)/N=c1\cc2n(-c3ccc(Cl)cc3)c3ccccc3nc-2cc1Nc1ccc(Cl)cc1 [clofazimine] + CC[C@@H](CO)NCCN[C@@H](CC)CO [ethambutol] + CO[C@H]1/C=C/O[C@@]2(C)Oc3c(C)c(O)c4c(O)c(c(/C=N/N5CCN(C)CC5)c(O)c4c3C2=O)NC(=O)/C(C)=C\C=C\[C@H](C)[C@H](O)[C@@H](C)[C@@H](O)[C@@H](C)[C@H](OC(C)=O)[C@@H]1C [rifampicin]
Details	AUC25, [1]	Einf, [2]	GRinf, [4]	total FIC50, [5]	total FIC90, [3]
in vitro model: acidic pH 5.7, time point: constant (~7 days, model-specific)	0.0857	0.88	-0.0788	-0.0594	–
in vitro model: acidic pH 5.7, time point: terminal (~4-5 doublings, model-specific)	0.0645	0.973	-0.112	0.213	-0.308
in vitro model: intracellular J774, time point: constant = terminal	–	0.969	-0.295	–	-2.37

Details	AUC25, [1]	Einf, [2]	GRinf, [4]	total FIC50, [5]	total FIC90, [3]
in vitro model: butyrate, time point: constant (~7 days, model-specific)	0.0971	0.95	-0.114	0.276	–
in vitro model: butyrate, time point: terminal (~4-5 doublings, model-specific)	0.1	0.982	-0.114	0.306	0.441
in vitro model: cholesterol 0.05 mM, time point: constant (~7 days, model-specific)	0.126	0.684	-0.277	–	–
in vitro model: cholesterol 0.05 mM, time point: terminal (~4-5 doublings, model-specific)	0.0974	0.785	0.17	2.31	–
in vitro model: cholesterol-high 0.2 mM, time point: constant (~7 days, model-specific)	0.0508	0.93	-0.277	0.891	–
in vitro model: cholesterol-high 0.2 mM, time point: terminal (~4-5 doublings, model-specific)	0.0801	1	-0.923	1.24	1.32
in vitro model: dormancy (butyrate + nitrate, low O2), time point: constant (~7 days, model-specific)	0.0958	0.828	0.515	0.137	–
in vitro model: dormancy (butyrate + nitrate, low O2), time point: terminal (~4-5 doublings, model-specific)	0.0873	0.991	-0.158	0.0335	-0.232
in vitro model: standard 7H9 glycerol, time point: constant = terminal	0.0958	0.922	0.048	-0.0461	–
in vitro model: valerate, time point: constant (~7 days, model-specific)	0.0993	0.858	0.045	0.749	–
in vitro model: valerate, time point: terminal (~4-5 doublings, model-specific)	0.0696	0.929	0.036	0.485	-0.638

CC(C)/N=c1\cc2n(-c3ccc(Cl)cc3)c3ccccc3nc-2cc1Nc1ccc(Cl)cc1 [clofazimine] + CC[C@@H](CO)NCCN[C@@H](CC)CO [ethambutol] + COc1c(N2C[C@@H]3CCCN[C@@H]3C2)c(F)cc2c(=O)c(C(=O)O)cn(C3CC3)c12 [moxifloxacin]
Details	AUC25, [1]	Einf, [2]	GRinf, [4]	total FIC50, [5]	total FIC90, [3]
in vitro model: acidic pH 5.7, time point: constant (~7 days, model-specific)	0.115	0.672	-0.00432	1.25	–
in vitro model: acidic pH 5.7, time point: terminal (~4-5 doublings, model-specific)	0.0596	0.925	-0.127	0.64	-0.564
in vitro model: intracellular J774, time point: constant = terminal	–	0.966	-0.457	–	-0.92

Details	AUC25, [1]	Einf, [2]	GRinf, [4]	total FIC50, [5]	total FIC90, [3]
in vitro model: butyrate, time point: constant (~7 days, model-specific)	0.11	0.96	-0.103	0.505	–
in vitro model: butyrate, time point: terminal (~4-5 doublings, model-specific)	0.0834	0.979	-0.104	0.581	0.553
in vitro model: cholesterol 0.05 mM, time point: constant (~7 days, model-specific)	0.123	0.651	-0.615	–	–
in vitro model: cholesterol 0.05 mM, time point: terminal (~4-5 doublings, model-specific)	0.117	0.885	-0.144	1.19	–
in vitro model: cholesterol-high 0.2 mM, time point: constant (~7 days, model-specific)	0.0933	0.95	-0.699	0.429	–
in vitro model: cholesterol-high 0.2 mM, time point: terminal (~4-5 doublings, model-specific)	0.0951	1	-0.973	0.534	0.957
in vitro model: dormancy (butyrate + nitrate, low O2), time point: constant (~7 days, model-specific)	0.0862	0.817	0.451	0.137	–
in vitro model: dormancy (butyrate + nitrate, low O2), time point: terminal (~4-5 doublings, model-specific)	0.113	0.977	-0.415	0.0118	0.798
in vitro model: standard 7H9 glycerol, time point: constant = terminal	0.0915	0.971	-0.184	0.258	0.732
in vitro model: valerate, time point: constant (~7 days, model-specific)	0.132	0.864	-0.0325	0.987	–
in vitro model: valerate, time point: terminal (~4-5 doublings, model-specific)	0.0712	0.903	0.0757	0.489	-1.39

CC(C)/N=c1\cc2n(-c3ccc(Cl)cc3)c3ccccc3nc-2cc1Nc1ccc(Cl)cc1 [clofazimine] + CC[C@@H](CO)NCCN[C@@H](CC)CO [ethambutol] + NC(=O)c1cnccn1 [pyrazinamide]
Details	AUC25, [1]	Einf, [2]	GRinf, [4]	total FIC50, [5]	total FIC90, [3]
in vitro model: acidic pH 5.7, time point: constant (~7 days, model-specific)	0.112	0.725	-0.183	-0.812	–
in vitro model: acidic pH 5.7, time point: terminal (~4-5 doublings, model-specific)	0.0918	0.954	-0.232	0.156	-0.781
in vitro model: intracellular J774, time point: constant = terminal	–	1	-0.398	–	-0.408

Details	AUC25, [1]	Einf, [2]	GRinf, [4]	total FIC50, [5]	total FIC90, [3]
in vitro model: butyrate, time point: constant (~7 days, model-specific)	0.1	0.913	-0.122	-0.0529	–
in vitro model: butyrate, time point: terminal (~4-5 doublings, model-specific)	0.075	0.953	-0.0327	0.0941	-0.127
in vitro model: cholesterol 0.05 mM, time point: constant (~7 days, model-specific)	0.147	0.758	-0.487	–	–
in vitro model: cholesterol 0.05 mM, time point: terminal (~4-5 doublings, model-specific)	0.123	0.86	-0.157	1.39	–
in vitro model: cholesterol-high 0.2 mM, time point: constant (~7 days, model-specific)	0.1	0.955	-0.718	0.509	–
in vitro model: cholesterol-high 0.2 mM, time point: terminal (~4-5 doublings, model-specific)	0.0851	0.998	-0.902	0.581	0.758
in vitro model: dormancy (butyrate + nitrate, low O2), time point: constant (~7 days, model-specific)	0.0979	0.826	0.349	-0.344	–
in vitro model: dormancy (butyrate + nitrate, low O2), time point: terminal (~4-5 doublings, model-specific)	0.124	0.999	-0.842	0.325	1.52
in vitro model: standard 7H9 glycerol, time point: constant = terminal	0.109	0.939	-0.163	0.315	–
in vitro model: valerate, time point: constant (~7 days, model-specific)	0.117	0.792	0.253	0.627	–
in vitro model: valerate, time point: terminal (~4-5 doublings, model-specific)	0.0625	0.898	0.205	0.395	–

CC(C)/N=c1\cc2n(-c3ccc(Cl)cc3)c3ccccc3nc-2cc1Nc1ccc(Cl)cc1 [clofazimine] + CC[C@@H](CO)NCCN[C@@H](CC)CO [ethambutol] + NNC(=O)c1ccncc1 [isoniazid]
Details	AUC25, [1]	Einf, [2]	GRinf, [4]	total FIC50, [5]	total FIC90, [3]
in vitro model: acidic pH 5.7, time point: constant (~7 days, model-specific)	0.0868	0.732	-0.0169	0.498	–
in vitro model: acidic pH 5.7, time point: terminal (~4-5 doublings, model-specific)	0.0876	0.955	-0.0829	0.678	0.618
in vitro model: intracellular J774, time point: constant = terminal	–	0.988	-0.375	–	-0.505

Details	AUC25, [1]	Einf, [2]	GRinf, [4]	total FIC50, [5]	total FIC90, [3]
in vitro model: butyrate, time point: constant (~7 days, model-specific)	0.0914	0.946	-0.098	0.523	–
in vitro model: butyrate, time point: terminal (~4-5 doublings, model-specific)	0.0804	0.976	-0.12	0.504	0.513
in vitro model: cholesterol 0.05 mM, time point: constant (~7 days, model-specific)	0.117	0.751	-0.165	0.257	–
in vitro model: cholesterol 0.05 mM, time point: terminal (~4-5 doublings, model-specific)	0.126	0.852	-0.135	1.57	–
in vitro model: cholesterol-high 0.2 mM, time point: constant (~7 days, model-specific)	0.0601	0.951	-0.518	0.899	–
in vitro model: cholesterol-high 0.2 mM, time point: terminal (~4-5 doublings, model-specific)	0.0945	0.998	-0.932	0.577	0.985
in vitro model: dormancy (butyrate + nitrate, low O2), time point: constant (~7 days, model-specific)	0.0906	0.807	0.507	0.0627	–
in vitro model: dormancy (butyrate + nitrate, low O2), time point: terminal (~4-5 doublings, model-specific)	0.132	0.998	-0.444	-0.121	0.753
in vitro model: standard 7H9 glycerol, time point: constant = terminal	0.118	0.954	-0.121	-0.209	–
in vitro model: valerate, time point: constant (~7 days, model-specific)	0.128	0.873	0.0565	0.974	–
in vitro model: valerate, time point: terminal (~4-5 doublings, model-specific)	0.0871	0.919	0.0494	0.446	-0.137

CC(C)/N=c1\cc2n(-c3ccc(Cl)cc3)c3ccccc3nc-2cc1Nc1ccc(Cl)cc1 [clofazimine] + CC[C@@H](CO)NCCN[C@@H](CC)CO [ethambutol] + O=[N+]([O-])c1cn2c(n1)OC[C@@H](OCc1ccc(OC(F)(F)F)cc1)C2 [pretomanid]
Details	AUC25, [1]	Einf, [2]	GRinf, [4]	total FIC50, [5]	total FIC90, [3]
in vitro model: acidic pH 5.7, time point: constant (~7 days, model-specific)	0.129	0.803	-0.436	0.449	–
in vitro model: acidic pH 5.7, time point: terminal (~4-5 doublings, model-specific)	0.0966	0.954	-0.21	0.46	0.859
in vitro model: intracellular J774, time point: constant = terminal	–	0.987	-0.321	–	-1.25

Details	AUC25, [1]	Einf, [2]	GRinf, [4]	total FIC50, [5]	total FIC90, [3]
in vitro model: butyrate, time point: constant (~7 days, model-specific)	0.103	0.962	-0.142	0.411	–
in vitro model: butyrate, time point: terminal (~4-5 doublings, model-specific)	0.0799	0.981	-0.138	0.442	0.382
in vitro model: cholesterol 0.05 mM, time point: constant (~7 days, model-specific)	0.136	0.718	-0.577	–	–
in vitro model: cholesterol 0.05 mM, time point: terminal (~4-5 doublings, model-specific)	0.131	0.84	-0.0173	2.15	–
in vitro model: cholesterol-high 0.2 mM, time point: constant (~7 days, model-specific)	0.102	0.928	-0.371	1.08	–
in vitro model: cholesterol-high 0.2 mM, time point: terminal (~4-5 doublings, model-specific)	0.0873	0.994	-0.857	0.97	1.51
in vitro model: dormancy (butyrate + nitrate, low O2), time point: constant (~7 days, model-specific)	0.106	0.824	0.446	-0.084	–
in vitro model: dormancy (butyrate + nitrate, low O2), time point: terminal (~4-5 doublings, model-specific)	0.127	0.99	-0.258	-0.114	0.801
in vitro model: standard 7H9 glycerol, time point: constant = terminal	0.126	0.956	-0.273	-0.284	–
in vitro model: valerate, time point: constant (~7 days, model-specific)	0.14	0.867	-0.308	0.805	–
in vitro model: valerate, time point: terminal (~4-5 doublings, model-specific)	0.0932	0.92	0.0599	0.355	0.973
